Reference: patent publication US20080280860A1, “Use of Vitamin D Compounds to Treat Endometriosis” (BioXell S.p.A., priority 2005, published 2008)

What was measured:
Maximum tolerated dose = format: in vivo, Balb/c mice
[1] = tested on: human stromal endometrial cells; assay: Cell chemotaxis assay (modified Boyden chamber); format: cell-based; conditions: FIG. 10
Experimental: (§1) Human stromal cell preparation: tissue was gently minced into small pieces (1 to 2 mm^3) and incubated at 37° C. for 1 h with 0.1% type A collagenase. At the end of the incubation, single stromal cells were separated from large dumps of epithelium by a 10 min. period of differential sedimentation at unity gravity. The top 8 ml of medium, containing predominantly stromal cells, were then slowly removed and the cells were collected by centrifugation. The stromal-enriched fraction was washed twice in culture medium and allowed to adhere selectively to tissue culture dishes for 15 min. Thereafter, non-attached epithelial cells still present were removed and a purified stromal preparation was obtained on the surface of the culture dishes.
Endometrial stromal cells migration was evaluated by means of chemotaxis experiments in a 48-well modified Boyden chamber. With the migration assay, we assessed the ability of the cells to migrate toward a chemo-attractant on a two-dimensional substrate (in our case, collagen type IV). […] The cells that had migrated to the lower side of the filter were stained with Diff-Quick stain (VWR Scientific Products, Bridgeport, N.J.), and 5-8 unit fields per filter were counted at 160× magnification using a Zeiss microscope. […]

[2] = tested on: Ectopic endometrium stromal cells; assay: Proliferation of endometrial stromal cells in vitro (CyQuant), ectopic; format: cell-based; conditions: 1 uM-0.1 nM, 48-96 hours; FIG. 2B; may be dose dependent
Experimental: as §1, with “Tissue” for “Human stromal cell preparation: tissue”, “clumps” for “dumps”, “min.” for “min. Thereafter, non-attached epithelial cells still present were removed and a purified stromal preparation was obtained on the surface of the culture dishes.”
(§2) Thereafter, nonattached epithelial cells still present were removed and a purified stromal preparation was obtained on the surface of the culture dishes.
(§3) The cells were maintained in DMEM supplemented with 10% Fetal Bovine Serum (SIGMA) and 100 U/ml penicillin, 100 ug/ml streptomycin (GIBCO cat. no. 15140-122).
(§4) When the stromal cells were grown to confluence, were washed in PBS and then trypsinized using 1× trypsin/EDTA solution (PromoCell cat. no. C-41002). […] The proliferation was determined with CyQuant Cell Proliferation Assay (Molecular Probe cat. no. C7026). […]
(§5) The fluorescence was determined using a fluorescence microplate reader with filters appropriate for ˜480 nm excitation and ˜520 nm emission.

endometriotic cells = assay: Cell adhesion of endometrial stromal cells from treated animals; format: in vivo; conditions: animals treated 100 ug/kg orally once a day for two days; 5 subjects per group; FIG. 9
Experimental: Paired animals were treated wth Compound A (100 ug/kg) orally once a day, for two days. The animals were then sacrificed and uterus horns were removed. Myometrium was removed by scraping with a scalpel blade and remaining endometrial tissue was reduced to small fragments with scissors.
Tissue was minced into small pieces (1 to 2 mm^3) and incubated at 37° C. for 1 h with 0.1% type A collagenase. At the end of the incubation, single stromal cells were separated from large dumps of epithelium by a 10 min. period of differential sedimentation at unity gravity. The top 8 ml of medium, containing predominantly stromal cells, were then slowly removed and the cells were collected by centrifugation. […]
Polystyrene 96-well plates (Costar) were coated with 50 ul/well of 8 mg/ml extracellular matrix (ECM) (Sigma, USA), and left uncovered in a laminar flow hood overnight to allow evaporation. […] The sample fluorescence in each well was measured using a fluorescence microplate reader with filters appropriate for 480 nm excitation and 520 nm emission maxima. Results were expressed as the percentage of total cells assuming that the adhesion of cells in the control was 100%. The percentage of adhesion was determined using the formula: (Abs after being rinsed with PBS/Abs no rinse)×100%. […]

peritoneal macrophages = assay: ELISA quantification of cytokine produced by peritoneal macrophages; format: in vivo, mice
Experimental: Peritoneal cells were recovered two weeks after unterus transfer in cold PBS, 2 mM EDTA, by peritoneal lavage of treated (Compound A at 100 ug/kg) and untreated (vehicle only) animals prepared according to the procedure described previously in Examples 1 to 3 (pool of 5 mice per group). Peritoneal macrophages were counted directly after collection using Turk reagent, washed, and placed into culture with RPMI/glutamax 5% FC I, pen/strep, Na pyruvate. After 2 hr at 37° C. the non adherent cells were removed and the macrophages were cultured for a further 48 hr. The supernatant was harvested and cytokines (TNF-alpha, IL1-alpha, IL1-beta, IL6, MIP-2 and VEGF) were quantified using a specific ELISA (R&D System DuoSet). All ELISA determinations were performed in duplicate on the undiluted sample. The total cells number plated was assessed by CyQuant test and values of protein production were normalized to cell number.

[3] = tested on: Eutopic endometrium stromal cells; assay: Proliferation of endometrial stromal cells in vitro (CyQuant), eutopic; format: cell-based; conditions: 1 uM-0.1 nM, 48-96 hours; FIG. 2A
Experimental: as §1, with “Tissue” for “Human stromal cell preparation: tissue”, “clumps” for “dumps”, “min.” for “min. Thereafter, non-attached epithelial cells still present were removed and a purified stromal preparation was obtained on the surface of the culture dishes.”
as §2, §3, §4, §5

Compound: C=C1/C(=C\C=C2/CCC[C@]3(C)C([C@@H](C)C/C=C/C(O)(CC)CC)=CC[C@@H]23)C[C@@H](O)C[C@@H]1F [Compound A, 1-alpha-fluoro-25-hydroxy-16,23E-diene-26,27-bishomo-20-epi-cholecalciferol]
- MTD (Maximum tolerated dose; Balb/c, mouse, in vivo, mice, ip, above it the compound becomes hypercalcemic): 0.1 mg/kg
- associated toxicity compared with the other compounds tested (Maximum tolerated dose; Example 2): lower associated toxicity
- reduction in migration with estrogen stimulation ([1]; 1 uM pretreatment 30 min, then β-Estradiol 24 h): approximately 50%
- basal condition of migration ([1]; 1 uM, without estrogen stimulation): No effect
- cell proliferation, Ectopic endometrium [2]: reduction in cell proliferation
- adhesion of endometriotic cells (endometriotic cells): dramatically reduce the adhesion
- inflammatory cytokine and VEGF production (TNF-alpha, IL1-alpha, IL1-beta, IL6, MIP-2, VEGF) (peritoneal macrophages; 100 ug/kg versus vehicle, macrophages recovered two weeks after uterus transfer, cultured 48 hr, FIG. 11): dramatically reduced
- cytokine production after re-activation in vitro with LPS (peritoneal macrophages; macrophages of treated animals, data not shown): still capable of producing the same cytokines
- cell proliferation, Eutopic endometrium [3]: reduction in cell proliferation
